Reference: patent publication US7407973B2, “Use of pirfenidone in therapeutic regimens” (Intermune, Inc., priority 2003, dated 2008)

Assays:
STAT1 = experiment: IFN-γ-induced STAT1 tyrosine phosphorylation in ME180 cells (immunoblot); assay type: cell-based, human; details: serum-starved ME180 cells; 100 μg/ml Pirfenidone for 1 h, then 10 ng/ml IFN-γ for 0-60 min; anti-phospho STAT1 immunoblot
Procedure: ME180 cells were grown in DMEM supplemented with 10% heat inactivated fetal calf serum, 2 mM L-glutamine, streptomycin (100 μg/ml) and penicillin (100 units/ml). Briefly, cells were seeded at a density of 5×10^6 cells in 100 mm tissue culture dishes. After 24 hrs, cells were washed with phosphate-buffered saline (PBS) and incubated in serum free growth media for 16 hours, then treated with medium or with 100 μg/ml of Pirfenidone for 1 h before treating them with Actimune (10 ng/ml) for 0-10-20-40 and 60 min. At the end of incubation period, cells were lysed by incubation in 50 mM HEPES (pH 7.0) containing 100 mM NaCl, 1.2% Triton X-100, 10% glycerol, 1.5 mM MgCl2, 100 mM NaF, 10 mM sodium pyrophosphate, 1 mM sodium orthovanadate, 1 mM EGTA (ethylene glycol-bis-β-aminoethylether-tetraacetic acid), 1 mM DTT (dithiothreitol), 1 mM phenylmethylsulfonylfloride (PMSF), 0.15 unit/ml aprotinin, 10 μg/ml leupeptin, 10 μg/ml pepstatin. Lysates were clarified by centrifugation (12.000×g for 1 min.). Equal amounts (100 μg) total proteins were subjected to SDS-PAGE on 10% polyacrylamide gels to separate the proteins. The proteins were then electrophoretically transferred from the polyacrylamide gel onto a nitrocellulose sheet for overnight at 20 mAmp, and analyzed by immunoblotting with anti-phospho STAT1-specific antibody (antibody specific for phosphorylated STAT1). […]

CDK3/cyclinE = CDK3/cyclinE (Homo sapiens, UniProt Q00526); experiment: Enzymatic activity of human kinase in presence of pirfenidone; assay type: biochemical; details: percent of control activity in absence of pirfenidone, concentration not given
Procedure: (§1) Enzymatic activity of various human kinases was assayed in the presence and the absence of pirfenidone. Percent enzyme activity of various human enzymes in the presence of substrate and pirfenidone are shown in FIGS. 1-5, and in Table 2, below, where “percent enzyme activity” is the percent of the control activity (e.g., in the absence of pirfenidone): […]

Fes = Fes (Homo sapiens, UniProt P07332); experiment: as above; assay type: biochemical; details: percent of control activity in absence of pirfenidone, concentration not given
Procedure: as §1

CK2 = CK2 (Homo sapiens, UniProt P68400); experiment: as above; assay type: biochemical; details: percent of control activity in absence of pirfenidone, concentration not given
CK2, sequence (P68400 whole entry): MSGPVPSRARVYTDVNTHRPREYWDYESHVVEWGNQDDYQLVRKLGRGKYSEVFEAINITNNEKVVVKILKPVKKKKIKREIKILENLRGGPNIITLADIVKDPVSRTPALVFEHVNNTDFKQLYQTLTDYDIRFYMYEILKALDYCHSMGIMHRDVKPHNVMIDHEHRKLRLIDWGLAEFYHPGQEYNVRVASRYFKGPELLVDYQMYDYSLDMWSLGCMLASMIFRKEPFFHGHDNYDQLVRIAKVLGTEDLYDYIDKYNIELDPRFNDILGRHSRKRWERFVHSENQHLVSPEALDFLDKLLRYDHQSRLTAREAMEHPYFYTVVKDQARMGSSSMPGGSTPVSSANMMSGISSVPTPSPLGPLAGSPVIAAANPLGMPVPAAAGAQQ
Procedure: as §1

c-RAF = c-RAF (Homo sapiens, UniProt P04049); experiment: as above; assay type: biochemical; details: percent of control activity in absence of pirfenidone, concentration not given
Procedure: as §1

FGFR3 = FGFR3 (Homo sapiens, UniProt P22607); experiment: as above; assay type: biochemical; details: percent of control activity in absence of pirfenidone, concentration not given
Procedure: as §1

CDK2/cyclinE = CDK2/cyclinE (Homo sapiens, UniProt P24941); experiment: as above; assay type: biochemical; details: percent of control activity in absence of pirfenidone, concentration not given
Procedure: as §1

CDK5/cyclinB = CDK5/cyclinB (Homo sapiens, UniProt Q00535); experiment: as above; assay type: biochemical; details: percent of control activity in absence of pirfenidone, concentration not given
Procedure: as §1

Flt3 = Flt3 (Homo sapiens, UniProt P36888); experiment: as above; assay type: biochemical; details: percent of control activity in absence of pirfenidone, concentration not given
Procedure: as §1

GSK3β = GSK3β (Homo sapiens, UniProt P49841); experiment: as above; assay type: biochemical; details: percent of control activity in absence of pirfenidone, concentration not given
Procedure: as §1

IKKα = IKKα (Homo sapiens, UniProt O15111); experiment: as above; assay type: biochemical; details: percent of control activity in absence of pirfenidone, concentration not given
IKKα, sequence (O15111 whole entry): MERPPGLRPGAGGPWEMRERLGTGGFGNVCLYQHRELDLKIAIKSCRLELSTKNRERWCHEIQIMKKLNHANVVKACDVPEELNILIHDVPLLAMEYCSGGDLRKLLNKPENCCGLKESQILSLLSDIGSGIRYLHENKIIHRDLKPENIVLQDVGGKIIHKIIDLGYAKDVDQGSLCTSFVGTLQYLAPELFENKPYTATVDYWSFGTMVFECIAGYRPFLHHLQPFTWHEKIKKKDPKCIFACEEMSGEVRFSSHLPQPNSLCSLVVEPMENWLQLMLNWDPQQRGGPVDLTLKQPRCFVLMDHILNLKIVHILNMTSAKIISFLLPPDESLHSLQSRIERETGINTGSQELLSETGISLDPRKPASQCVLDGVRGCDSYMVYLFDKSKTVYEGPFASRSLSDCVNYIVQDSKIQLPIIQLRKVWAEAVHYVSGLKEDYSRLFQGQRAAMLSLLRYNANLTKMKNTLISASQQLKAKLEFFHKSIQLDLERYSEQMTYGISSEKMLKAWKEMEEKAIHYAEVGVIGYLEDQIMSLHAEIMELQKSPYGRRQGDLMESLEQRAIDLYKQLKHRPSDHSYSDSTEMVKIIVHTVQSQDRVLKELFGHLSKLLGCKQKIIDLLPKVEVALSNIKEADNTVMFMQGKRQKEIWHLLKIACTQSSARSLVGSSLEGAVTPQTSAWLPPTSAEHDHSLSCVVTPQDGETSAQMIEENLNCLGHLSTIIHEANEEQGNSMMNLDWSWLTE
Procedure: as §1

Yes = Yes (Homo sapiens, UniProt P07947); experiment: as above; assay type: biochemical; details: percent of control activity in absence of pirfenidone, concentration not given
Procedure: as §1

CHK1 = CHK1 (Homo sapiens, UniProt O14757); experiment: as above; assay type: biochemical; details: percent of control activity in absence of pirfenidone, concentration not given
CHK1, sequence (O14757 whole entry): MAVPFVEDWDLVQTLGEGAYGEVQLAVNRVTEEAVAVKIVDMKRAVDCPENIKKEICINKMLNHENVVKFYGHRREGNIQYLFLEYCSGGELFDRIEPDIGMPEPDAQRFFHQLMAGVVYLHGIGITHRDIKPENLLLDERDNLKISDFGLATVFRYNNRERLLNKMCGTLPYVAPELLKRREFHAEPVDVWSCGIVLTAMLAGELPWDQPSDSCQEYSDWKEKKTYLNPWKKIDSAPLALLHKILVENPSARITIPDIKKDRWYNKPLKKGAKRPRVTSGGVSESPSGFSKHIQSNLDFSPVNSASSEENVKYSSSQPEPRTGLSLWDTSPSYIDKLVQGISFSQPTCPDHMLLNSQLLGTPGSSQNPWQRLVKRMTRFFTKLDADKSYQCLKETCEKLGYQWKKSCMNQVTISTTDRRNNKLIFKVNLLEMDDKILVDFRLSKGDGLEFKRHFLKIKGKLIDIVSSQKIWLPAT
Procedure: as §1

GSK3α = GSK3α (Homo sapiens, UniProt P49840); experiment: as above; assay type: biochemical; details: percent of control activity in absence of pirfenidone, concentration not given
Procedure: as §1

TrkB = TrkB (Homo sapiens, UniProt Q16620); experiment: as above; assay type: biochemical; details: percent of control activity in absence of pirfenidone, concentration not given
TrkB, sequence (Q16620 32-822): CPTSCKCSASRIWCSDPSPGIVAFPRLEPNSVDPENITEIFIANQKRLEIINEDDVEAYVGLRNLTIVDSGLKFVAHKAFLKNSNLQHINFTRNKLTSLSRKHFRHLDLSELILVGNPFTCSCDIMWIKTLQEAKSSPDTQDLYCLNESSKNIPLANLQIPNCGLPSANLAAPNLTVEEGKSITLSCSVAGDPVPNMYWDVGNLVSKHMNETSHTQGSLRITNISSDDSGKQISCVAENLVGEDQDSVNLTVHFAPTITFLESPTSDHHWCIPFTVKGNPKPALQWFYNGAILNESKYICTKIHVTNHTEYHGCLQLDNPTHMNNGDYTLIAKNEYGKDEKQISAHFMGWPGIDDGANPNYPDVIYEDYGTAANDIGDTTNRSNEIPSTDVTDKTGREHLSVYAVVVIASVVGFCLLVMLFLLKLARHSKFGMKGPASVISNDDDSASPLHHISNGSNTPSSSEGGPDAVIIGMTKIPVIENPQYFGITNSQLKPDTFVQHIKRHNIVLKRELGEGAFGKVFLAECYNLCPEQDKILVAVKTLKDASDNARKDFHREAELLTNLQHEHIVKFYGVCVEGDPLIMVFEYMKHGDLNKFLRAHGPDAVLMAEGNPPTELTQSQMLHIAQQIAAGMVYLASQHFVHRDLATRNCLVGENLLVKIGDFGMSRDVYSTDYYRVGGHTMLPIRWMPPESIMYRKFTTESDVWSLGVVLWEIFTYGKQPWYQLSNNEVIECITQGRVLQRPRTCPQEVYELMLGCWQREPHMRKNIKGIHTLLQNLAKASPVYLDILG
Procedure: as §1

CDK1/cyclinB = CDK1/cyclinB (Homo sapiens, UniProt P06493); experiment: as above; assay type: biochemical; details: percent of control activity in absence of pirfenidone, concentration not given
Procedure: as §1

PKCη = PKCη (Homo sapiens, UniProt P24723); experiment: as above; assay type: biochemical; details: percent of control activity in absence of pirfenidone, concentration not given
PKCη, sequence (P24723 whole entry): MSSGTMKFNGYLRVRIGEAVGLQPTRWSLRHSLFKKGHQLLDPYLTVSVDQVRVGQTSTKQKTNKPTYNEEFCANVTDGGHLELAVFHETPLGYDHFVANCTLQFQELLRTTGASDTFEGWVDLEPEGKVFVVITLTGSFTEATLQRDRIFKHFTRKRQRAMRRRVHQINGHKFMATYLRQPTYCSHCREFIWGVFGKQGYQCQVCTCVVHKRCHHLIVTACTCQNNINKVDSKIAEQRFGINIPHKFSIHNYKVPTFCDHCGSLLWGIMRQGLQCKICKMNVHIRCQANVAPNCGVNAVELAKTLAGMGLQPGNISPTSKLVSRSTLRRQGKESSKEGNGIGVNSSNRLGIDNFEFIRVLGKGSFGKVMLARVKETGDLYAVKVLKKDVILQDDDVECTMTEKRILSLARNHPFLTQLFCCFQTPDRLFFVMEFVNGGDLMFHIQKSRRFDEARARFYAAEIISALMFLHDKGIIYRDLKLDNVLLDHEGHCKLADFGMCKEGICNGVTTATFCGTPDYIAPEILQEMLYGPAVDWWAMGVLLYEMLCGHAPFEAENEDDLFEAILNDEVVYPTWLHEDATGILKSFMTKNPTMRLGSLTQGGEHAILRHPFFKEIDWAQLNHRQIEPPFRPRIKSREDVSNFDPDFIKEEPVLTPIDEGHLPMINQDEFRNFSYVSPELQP
Procedure: as §1

Rsk1 = Rsk1 (Homo sapiens, UniProt Q15418); experiment: as above; assay type: biochemical; details: percent of control activity in absence of pirfenidone, concentration not given
Procedure: as §1

IGF-1R = IGF-1R (Homo sapiens, UniProt P08069); experiment: as above; assay type: biochemical; details: percent of control activity in absence of pirfenidone, concentration not given
Procedure: as §1

JNK3 = JNK3 (Homo sapiens, UniProt P53779); experiment: as above; assay type: biochemical; details: percent of control activity in absence of pirfenidone, concentration not given
JNK3, sequence (P53779 whole entry): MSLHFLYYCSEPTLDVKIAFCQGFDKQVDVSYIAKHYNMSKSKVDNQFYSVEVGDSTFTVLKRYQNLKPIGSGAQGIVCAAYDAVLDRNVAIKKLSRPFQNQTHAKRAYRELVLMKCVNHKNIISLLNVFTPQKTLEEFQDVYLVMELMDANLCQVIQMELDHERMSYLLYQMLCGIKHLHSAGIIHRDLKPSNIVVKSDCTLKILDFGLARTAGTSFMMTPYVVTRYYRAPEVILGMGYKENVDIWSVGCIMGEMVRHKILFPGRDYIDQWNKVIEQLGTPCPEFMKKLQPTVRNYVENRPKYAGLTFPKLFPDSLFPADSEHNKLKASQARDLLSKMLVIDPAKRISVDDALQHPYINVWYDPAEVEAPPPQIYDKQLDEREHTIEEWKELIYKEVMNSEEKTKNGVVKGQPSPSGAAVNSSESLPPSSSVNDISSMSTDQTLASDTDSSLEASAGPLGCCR
Procedure: as §1

PDGFR = PDGFR (Homo sapiens, UniProt P16234); experiment: as above; assay type: biochemical; details: percent of control activity in absence of pirfenidone, concentration not given
Procedure: as §1

Aurora-A = Aurora-A (Homo sapiens, UniProt O14965); experiment: as above; assay type: biochemical; details: percent of control activity in absence of pirfenidone, concentration not given
Procedure: as §1

MKK7β = MKK7β (Homo sapiens, UniProt O14733); experiment: as above; assay type: biochemical; details: percent of control activity in absence of pirfenidone, concentration not given
MKK7β, sequence (O14733 whole entry): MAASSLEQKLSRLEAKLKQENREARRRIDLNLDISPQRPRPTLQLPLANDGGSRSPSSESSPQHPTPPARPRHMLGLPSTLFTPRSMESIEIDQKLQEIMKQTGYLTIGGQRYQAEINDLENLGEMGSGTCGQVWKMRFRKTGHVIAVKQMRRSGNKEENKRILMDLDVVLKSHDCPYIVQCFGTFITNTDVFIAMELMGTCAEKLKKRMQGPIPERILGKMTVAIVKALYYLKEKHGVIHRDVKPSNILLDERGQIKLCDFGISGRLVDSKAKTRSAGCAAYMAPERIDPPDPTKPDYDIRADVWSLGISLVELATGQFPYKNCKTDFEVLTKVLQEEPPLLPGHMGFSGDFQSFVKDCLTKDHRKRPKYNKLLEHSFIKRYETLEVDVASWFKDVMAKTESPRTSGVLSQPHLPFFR
Procedure: as §1

PKCa = experiment: as above; assay type: biochemical; details: percent of control activity in absence of pirfenidone, concentration not given
Procedure: as §1

ZAP-70 = ZAP-70 (Homo sapiens, UniProt P43403); experiment: as above; assay type: biochemical; details: percent of control activity in absence of pirfenidone, concentration not given
ZAP-70, sequence (P43403 whole entry): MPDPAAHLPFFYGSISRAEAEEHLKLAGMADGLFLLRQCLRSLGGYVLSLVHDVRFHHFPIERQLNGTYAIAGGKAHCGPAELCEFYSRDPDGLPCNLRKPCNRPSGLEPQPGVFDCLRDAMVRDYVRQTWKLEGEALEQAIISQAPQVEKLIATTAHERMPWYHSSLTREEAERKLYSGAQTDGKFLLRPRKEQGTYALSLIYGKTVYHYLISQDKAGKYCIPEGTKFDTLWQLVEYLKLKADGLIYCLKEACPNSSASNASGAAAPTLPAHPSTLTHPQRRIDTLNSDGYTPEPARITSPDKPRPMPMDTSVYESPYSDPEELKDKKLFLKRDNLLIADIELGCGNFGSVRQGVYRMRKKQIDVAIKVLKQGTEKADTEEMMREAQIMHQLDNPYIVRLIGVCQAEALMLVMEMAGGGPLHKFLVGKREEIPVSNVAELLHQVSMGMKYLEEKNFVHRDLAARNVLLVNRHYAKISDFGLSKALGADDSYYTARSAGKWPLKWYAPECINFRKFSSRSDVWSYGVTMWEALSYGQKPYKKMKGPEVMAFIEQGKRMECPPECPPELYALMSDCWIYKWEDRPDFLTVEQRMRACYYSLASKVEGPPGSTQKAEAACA
Procedure: as §1

MEK1 = MEK1 (Homo sapiens, UniProt Q02750); experiment: as above; assay type: biochemical; details: percent of control activity in absence of pirfenidone, concentration not given
Procedure: as §1

PKCτ = experiment: as above; assay type: biochemical; details: percent of control activity in absence of pirfenidone, concentration not given
Procedure: as §1

CDK2/cyclinA = CDK2/cyclinA (Homo sapiens, UniProt P24941); experiment: as above; assay type: biochemical; details: percent of control activity in absence of pirfenidone, concentration not given
Procedure: as §1

MSK1 = MSK1 (Homo sapiens, UniProt O75582); experiment: as above; assay type: biochemical; details: percent of control activity in absence of pirfenidone, concentration not given
Procedure: as §1

MAPK2 = MAPK2 (Homo sapiens, UniProt P28482); experiment: as above; assay type: biochemical; details: percent of control activity in absence of pirfenidone, concentration not given
MAPK2, sequence (P28482 whole entry): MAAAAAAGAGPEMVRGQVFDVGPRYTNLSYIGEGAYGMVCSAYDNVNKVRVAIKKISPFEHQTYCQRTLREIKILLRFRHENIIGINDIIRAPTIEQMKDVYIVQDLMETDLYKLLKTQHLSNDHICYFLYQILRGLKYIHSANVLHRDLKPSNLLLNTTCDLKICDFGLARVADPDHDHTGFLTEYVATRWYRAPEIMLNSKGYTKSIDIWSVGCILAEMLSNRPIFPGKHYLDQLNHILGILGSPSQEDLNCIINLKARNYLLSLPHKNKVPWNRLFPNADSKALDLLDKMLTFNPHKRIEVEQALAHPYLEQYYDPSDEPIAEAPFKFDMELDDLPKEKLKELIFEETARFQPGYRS
Procedure: as §1

SMILES: Cc1ccc(=O)n(-c2ccccc2)c1 [pirfenidone, 5-methyl-1-phenyl-2-(1H)-pyridone]
- Effect on IFN-γ-induced STAT1 tyrosine phosphorylation (STAT1): does not affect
- % Activity (CDK3/cyclinE): 86%
- % Activity (Fes): 88%
- % Activity (CK2): 94%
- % Activity (c-RAF): 91%
- % Activity (FGFR3): 104%
- % Activity (CDK2/cyclinE): 89%
- % Activity (CDK5/cyclinB): 102%
- % Activity (Flt3): 103%
- % Activity (GSK3β): 91%
- % Activity (IKKα): 114%
- % Activity (Yes): 104%
- % Activity (CHK1): 105%
- % Activity (GSK3α): 91%
- % Activity (TrkB): 101%
- % Activity (CDK1/cyclinB): 102%
- % Activity (PKCη): 88%
- % Activity (Rsk1): 88%
- % Activity (IGF-1R): 92%
- % Activity (JNK3): 106%
- % Activity (PDGFR): 101%
- % Activity (Aurora-A): 120%
- % Activity (MKK7β): 105%
- % Activity (PKCa): 96%
- % Activity (ZAP-70): 109%
- % Activity (MEK1): 100%
- % Activity (PKCτ): 96%
- % Activity (CDK2/cyclinA): 92%
- % Activity (MSK1): 93%
- % Activity (MAPK2): 100%
